Consider 28 molecules from ChEMBL document CHEMBL1268847, “Discovery of orally bioavailable imidazo[1,2-a]pyrazine-based Aurora kinase inhibitors” (Bioorg Med Chem Lett, 2010).

Data set [1] in a line: Inhibition of Aurora kinase assessed as reduction histone H3 Ser10 phosphorylation by cell based assay.
The target of the next data set is T1, Aurora kinase A (Homo sapiens, UniProt O14965).
T1 sequence (O14965 whole entry): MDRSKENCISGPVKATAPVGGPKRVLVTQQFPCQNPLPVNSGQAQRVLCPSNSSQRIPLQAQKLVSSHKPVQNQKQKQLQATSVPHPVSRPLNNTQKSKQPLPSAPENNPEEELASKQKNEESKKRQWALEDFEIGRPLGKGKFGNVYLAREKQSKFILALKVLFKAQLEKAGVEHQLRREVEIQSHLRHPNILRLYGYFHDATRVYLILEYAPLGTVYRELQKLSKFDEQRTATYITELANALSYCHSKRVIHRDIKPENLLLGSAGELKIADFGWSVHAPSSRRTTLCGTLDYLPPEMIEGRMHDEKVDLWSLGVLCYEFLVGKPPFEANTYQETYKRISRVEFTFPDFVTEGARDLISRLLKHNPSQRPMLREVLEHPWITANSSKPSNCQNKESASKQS
The experiment in a line: Inhibition of Aurora A.

A further data set concerns the target Aurora kinase B (Homo sapiens, UniProt Q96GD4). Nature of the data set: Inhibition of Aurora B.
Data set [2] in a line: AUC (0-6 hrs) in rat at 10 mg/kg, po. More on the design: time < 6 hr, dose 10 mg/kg, route oral. In kind it is ADME, organism-based. Particulars: plasma.
Data set [3] deals with Tyrosine-protein kinase Lck (Homo sapiens, UniProt P06239). The experiment in a line: Inhibition of LCK.
Chain of Tyrosine-protein kinase Lck (P06239 whole entry): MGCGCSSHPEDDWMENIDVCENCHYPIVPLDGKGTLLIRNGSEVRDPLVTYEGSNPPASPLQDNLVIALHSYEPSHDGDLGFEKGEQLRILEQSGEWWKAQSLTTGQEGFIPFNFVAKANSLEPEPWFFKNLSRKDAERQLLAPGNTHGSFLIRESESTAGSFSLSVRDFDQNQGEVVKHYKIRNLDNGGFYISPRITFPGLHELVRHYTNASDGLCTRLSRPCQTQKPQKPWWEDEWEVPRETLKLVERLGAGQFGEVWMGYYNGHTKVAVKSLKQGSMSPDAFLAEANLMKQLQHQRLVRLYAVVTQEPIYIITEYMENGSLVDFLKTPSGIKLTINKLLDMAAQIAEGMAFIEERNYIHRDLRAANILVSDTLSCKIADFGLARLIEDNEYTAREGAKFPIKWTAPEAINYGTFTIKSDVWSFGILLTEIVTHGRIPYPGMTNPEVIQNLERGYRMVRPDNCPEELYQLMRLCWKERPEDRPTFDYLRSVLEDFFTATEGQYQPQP
Data set [4] deals with Vascular endothelial growth factor receptor 2 (Homo sapiens, UniProt P35968). The experiment in a line: Inhibition of VEGFR2.
Chain of Vascular endothelial growth factor receptor 2 (P35968 whole entry): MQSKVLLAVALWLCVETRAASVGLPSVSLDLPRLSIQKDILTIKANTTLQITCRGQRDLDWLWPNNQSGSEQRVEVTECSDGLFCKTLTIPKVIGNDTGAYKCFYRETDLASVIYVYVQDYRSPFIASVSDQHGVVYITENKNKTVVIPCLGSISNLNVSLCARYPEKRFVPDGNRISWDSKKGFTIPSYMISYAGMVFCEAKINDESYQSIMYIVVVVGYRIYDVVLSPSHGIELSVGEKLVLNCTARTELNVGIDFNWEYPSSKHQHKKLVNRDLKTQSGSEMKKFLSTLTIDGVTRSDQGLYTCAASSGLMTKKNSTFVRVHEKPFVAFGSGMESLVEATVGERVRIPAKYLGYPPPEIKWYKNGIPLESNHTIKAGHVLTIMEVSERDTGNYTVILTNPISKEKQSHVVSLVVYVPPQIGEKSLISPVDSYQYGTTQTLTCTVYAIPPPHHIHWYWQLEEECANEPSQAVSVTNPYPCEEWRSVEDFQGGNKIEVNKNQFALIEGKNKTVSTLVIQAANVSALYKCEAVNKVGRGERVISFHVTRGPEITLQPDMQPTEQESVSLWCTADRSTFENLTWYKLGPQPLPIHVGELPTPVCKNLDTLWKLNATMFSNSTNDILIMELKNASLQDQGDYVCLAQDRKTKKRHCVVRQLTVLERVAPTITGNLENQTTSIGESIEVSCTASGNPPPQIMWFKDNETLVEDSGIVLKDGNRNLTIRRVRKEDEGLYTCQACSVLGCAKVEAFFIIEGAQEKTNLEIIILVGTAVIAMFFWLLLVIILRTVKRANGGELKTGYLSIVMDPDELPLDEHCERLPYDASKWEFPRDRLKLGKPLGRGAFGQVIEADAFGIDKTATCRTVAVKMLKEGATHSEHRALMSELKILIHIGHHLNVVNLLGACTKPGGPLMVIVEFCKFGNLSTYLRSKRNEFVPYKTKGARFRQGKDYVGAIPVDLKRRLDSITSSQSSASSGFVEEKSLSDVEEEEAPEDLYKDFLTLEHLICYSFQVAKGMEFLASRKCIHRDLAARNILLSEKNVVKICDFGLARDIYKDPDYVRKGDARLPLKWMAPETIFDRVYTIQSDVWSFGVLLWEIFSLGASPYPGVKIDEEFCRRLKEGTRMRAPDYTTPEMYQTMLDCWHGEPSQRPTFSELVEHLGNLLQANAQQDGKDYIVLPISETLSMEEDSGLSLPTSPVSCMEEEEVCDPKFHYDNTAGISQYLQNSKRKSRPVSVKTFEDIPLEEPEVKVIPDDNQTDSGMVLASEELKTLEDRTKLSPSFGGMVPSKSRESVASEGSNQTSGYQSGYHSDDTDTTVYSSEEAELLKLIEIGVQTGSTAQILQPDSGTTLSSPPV
Data set [5] has as its target T2, Interleukin-1 receptor-associated kinase 4 (Homo sapiens, UniProt Q9NWZ3).
T2 sequence (Q9NWZ3 whole entry): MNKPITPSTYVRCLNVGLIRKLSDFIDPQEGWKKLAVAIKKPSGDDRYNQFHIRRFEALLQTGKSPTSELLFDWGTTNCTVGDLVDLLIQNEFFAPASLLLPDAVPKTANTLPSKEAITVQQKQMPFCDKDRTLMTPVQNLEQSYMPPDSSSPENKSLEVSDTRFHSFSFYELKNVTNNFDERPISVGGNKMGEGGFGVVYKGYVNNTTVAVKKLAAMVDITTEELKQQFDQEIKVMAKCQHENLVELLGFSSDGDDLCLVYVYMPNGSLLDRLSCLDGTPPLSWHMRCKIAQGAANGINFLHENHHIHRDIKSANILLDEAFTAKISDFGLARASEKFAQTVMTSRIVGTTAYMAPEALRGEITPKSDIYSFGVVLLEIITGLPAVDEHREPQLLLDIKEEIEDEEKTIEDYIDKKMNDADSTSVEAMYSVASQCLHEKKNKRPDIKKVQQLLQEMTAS
The experiment in a line: Inhibition of IRK4.

Data set [6] has as its target Ribosomal protein S6 kinase alpha-3 (Homo sapiens, UniProt P51812). The experiment in a line: Inhibition of RSK2.
The target of data set [7] is T3, Serine/threonine-protein kinase Chk1 (Homo sapiens, UniProt O14757).
T3 sequence (O14757 whole entry): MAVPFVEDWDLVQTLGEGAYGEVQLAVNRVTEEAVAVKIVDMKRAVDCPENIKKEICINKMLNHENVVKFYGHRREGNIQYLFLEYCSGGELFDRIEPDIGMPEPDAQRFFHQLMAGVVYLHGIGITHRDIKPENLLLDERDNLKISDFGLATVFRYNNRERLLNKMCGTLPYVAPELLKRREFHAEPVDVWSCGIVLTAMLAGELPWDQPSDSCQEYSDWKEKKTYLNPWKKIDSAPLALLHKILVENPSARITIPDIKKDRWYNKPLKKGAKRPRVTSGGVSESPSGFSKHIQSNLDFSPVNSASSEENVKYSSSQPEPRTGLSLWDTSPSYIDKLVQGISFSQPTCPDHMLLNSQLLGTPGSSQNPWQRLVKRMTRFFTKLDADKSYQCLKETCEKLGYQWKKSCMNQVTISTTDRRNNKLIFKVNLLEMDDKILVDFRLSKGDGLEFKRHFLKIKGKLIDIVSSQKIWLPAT
The experiment in a line: Inhibition of CHK1.

Structures are written as SMILES.

Chain of Aurora kinase B (Q96GD4 whole entry): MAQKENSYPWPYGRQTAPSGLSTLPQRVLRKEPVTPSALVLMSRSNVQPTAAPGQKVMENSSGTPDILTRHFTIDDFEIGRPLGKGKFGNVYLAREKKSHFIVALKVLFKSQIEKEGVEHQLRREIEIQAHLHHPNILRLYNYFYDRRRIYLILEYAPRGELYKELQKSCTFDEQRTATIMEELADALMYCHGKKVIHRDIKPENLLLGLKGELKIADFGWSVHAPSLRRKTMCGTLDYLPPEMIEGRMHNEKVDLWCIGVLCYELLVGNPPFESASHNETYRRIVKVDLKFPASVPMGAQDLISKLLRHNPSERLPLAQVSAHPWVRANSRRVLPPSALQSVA
Chain of Ribosomal protein S6 kinase alpha-3 (P51812 whole entry): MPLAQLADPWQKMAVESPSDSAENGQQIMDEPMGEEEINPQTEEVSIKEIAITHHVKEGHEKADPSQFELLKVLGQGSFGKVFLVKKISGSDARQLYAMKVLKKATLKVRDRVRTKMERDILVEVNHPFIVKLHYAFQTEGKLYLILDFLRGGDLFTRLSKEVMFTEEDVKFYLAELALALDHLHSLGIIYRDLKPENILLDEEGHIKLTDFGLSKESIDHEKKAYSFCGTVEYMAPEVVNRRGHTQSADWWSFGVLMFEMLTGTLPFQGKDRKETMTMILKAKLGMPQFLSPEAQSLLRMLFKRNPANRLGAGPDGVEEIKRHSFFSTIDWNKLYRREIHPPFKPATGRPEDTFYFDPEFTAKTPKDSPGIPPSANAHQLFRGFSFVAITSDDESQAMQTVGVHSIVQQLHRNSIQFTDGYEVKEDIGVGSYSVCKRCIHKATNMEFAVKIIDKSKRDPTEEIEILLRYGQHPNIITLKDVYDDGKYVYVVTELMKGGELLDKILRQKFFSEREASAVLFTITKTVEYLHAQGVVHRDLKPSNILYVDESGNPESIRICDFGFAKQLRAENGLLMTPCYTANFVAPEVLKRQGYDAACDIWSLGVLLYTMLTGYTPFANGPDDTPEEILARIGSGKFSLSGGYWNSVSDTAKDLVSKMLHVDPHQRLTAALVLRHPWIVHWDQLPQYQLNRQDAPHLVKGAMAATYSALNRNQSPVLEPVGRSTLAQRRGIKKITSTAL

`CCNC(=O)N1CCN(Cc2cc(Nc3nc(C)cn4c(-c5cn[nH]c5)cnc34)sn2)CC1`: in data set [1], the EC50 (commonly the concentration that produces a half-maximal response) was more than 1000 nM. The IC50 (as a rule, the concentration at which inhibition is half-maximal) against Aurora kinase A was not above 4 nM; on Aurora kinase B it was not above 13 nM.

For `Cc1cn2c(-c3cn[nH]c3)cnc2c(Nc2cc(CN3CCOCC34CCC4)ns2)n1`, the EC50 in [1] amounted to 197 nM. Besides, the AUC(0-t) (in general, exposure summed from dosing to a finite time, without extrapolation to infinity) at 6 h in data set [2] is 0.4 µM·h. In addition, the IC50 against Aurora kinase A is not above 4 nM; on Aurora kinase B it was not above 13 nM.

In the case of `Cc1cn2c(-c3cn[nH]c3)cnc2c(Nc2cc(CN3C[C@H]4CC[C@@H](C3)O4)ns2)n1`, in [1], the EC50 was 267 nM. The molecule also gave an exposure AUC(0-t) at 6 h in data set [2] of 0.4 µM·h. Further, the figures for the IC50 at Aurora kinase A and against Aurora kinase B were not above 4 nM and not above 13 nM, respectively.

As to `Cc1cn2c(-c3cn[nH]c3)cnc2c(Nc2cc(CN3CCOC(C)(C)C3)ns2)n1`, the EC50 in data set [1] worked out at 250 nM. For the same molecule, the results for the IC50 at Aurora kinase A and at Aurora kinase B were not above 4 nM and not above 13 nM, respectively.

On to `Cc1cn2c(-c3cn[nH]c3)cnc2c(Nc2cc(CN3C[C@H](C)OC[C@@H]3C)ns2)n1`, for which the EC50 in [1] came out at 256 nM. For the same molecule, the AUC(0-t) at 6 h in data set [2] is 3.9 µM·h. Also, the results for the half-inhibitory concentration (IC50) on Aurora kinase A and at Aurora kinase B were not above 4 nM and not above 13 nM, respectively.

In the case of `Cc1cn2c(-c3cn[nH]c3)cnc2c(Nc2cc(CN3CCN(C)CC3=O)ns2)n1`, in [1], the EC50 was more than 1000 nM. The half-inhibitory concentration (IC50) at Aurora kinase A is not above 4 nM; at Aurora kinase B, not above 13 nM.

With `Cc1cn2c(-c3cn[nH]c3)cnc2c(Nc2cc(CN3CCOCC3(C)C)ns2)n1`, in data set [1], the EC50 came to 117 nM. For the same molecule, in data set [2], the AUC(0-t) at 6 h was 3.3 µM·h. The IC50 is not above 4 nM against Aurora kinase A, not above 13 nM at Aurora kinase B and 384 nM in [3].

Consider `CC(=O)N1CCN(Cc2cc(Nc3nc(C)cn4c(-c5cn[nH]c5)cnc34)sn2)CC1`, for which the EC50 in [1] is more than 1000 nM. For the same molecule, the values for the IC50 against Aurora kinase A and on Aurora kinase B were not above 4 nM and not above 13 nM, respectively.

`Cc1cn2c(-c3cn[nH]c3)cnc2c(Nc2cc(C(C)N3CCOCC3)ns2)n1` (racemic): in data set [1], the EC50 was found to be 74 nM. This molecule yielded an AUC(0-t) at 6 h in data set [2] of 1.1 µM·h. Moreover, the values for the IC50 against Aurora kinase A and against Aurora kinase B were not above 4 nM and not above 13 nM, respectively.

Regarding `Cc1cn2c(-c3cn[nH]c3)cnc2c(Nc2cc(C(C)N3CCOC(C)(C)C3)ns2)n1` (racemic), the EC50 in data set [1] is 71 nM. The AUC(0-t) at 6 h in data set [2] amounted to 1.3 µM·h. In addition, the half-inhibitory concentration (IC50) against Aurora kinase A is not above 4 nM; against Aurora kinase B it was not above 13 nM.

With `Cc1cn2c(-c3cn[nH]c3)cnc2c(Nc2cc([C@H](C)N3C[C@@H](C)O[C@@H](C)C3)ns2)n1`, the EC50 in data set [1] came out at 217 nM. The AUC(0-t) at 6 h in data set [2] stood at 1.1 µM·h.

Turning to `Cc1cn2c(-c3cn[nH]c3)cnc2c(Nc2cc(C(C)N3C[C@@H](C)O[C@@H](C)C3)ns2)n1` (mixture of isomers), in data set [1], the EC50 worked out at 55 nM. In data set [2], this molecule yielded an AUC(0-t) at 6 h of 8 µM·h. Moreover, the IC50 was not above 4 nM on Aurora kinase A and not above 13 nM on Aurora kinase B.

In the case of `CCOC(=O)N1CCN(Cc2cc(Nc3nc(C)cn4c(-c5cn[nH]c5)cnc34)sn2)CC1`, the EC50 in [1] stood at 561 nM. This molecule also registered an AUC(0-t) at 6 h in [2] of 0.38 µM·h. The concentration for half-maximal inhibition (IC50) at Aurora kinase A was not above 4 nM; against Aurora kinase B, not above 13 nM.

In the case of `CCC(c1cc(Nc2nc(C)cn3c(-c4cn[nH]c4)cnc23)sn1)N1CCOCC1` (racemic), the EC50 in [1] was 49 nM. The AUC(0-t) at 6 h in data set [2] was found to be 0.5 µM·h. In addition, the figures for the half-maximal inhibitory concentration (IC50) against Aurora kinase A and against Aurora kinase B were not above 4 nM and not above 13 nM, respectively.

Turning to `CCOCC(c1cc(Nc2nc(C)cn3c(-c4cn[nH]c4)cnc23)sn1)N1CCOCC1` (racemic), in [1], the EC50 is 281 nM. Also, the IC50 at Aurora kinase A was not above 4 nM; on Aurora kinase B, not above 13 nM.

For `Cc1cn2c(-c3cn[nH]c3)cnc2c(Nc2cc(C(c3ccccn3)N3CCOCC3)ns2)n1` (racemic), the concentration for a half-maximal effect (EC50) in data set [1] came out at 104 nM. Moreover, the AUC(0-t) at 6 h in data set [2] was found to be 0.4 µM·h. For the same molecule, the IC50 on Aurora kinase A is not above 4 nM; against Aurora kinase B it was not above 13 nM.

Turning to `Cc1cn2c(-c3cn[nH]c3)cnc2c(Nc2cc(CN3CCN(S(C)(=O)=O)CC3)ns2)n1`, the concentration for a half-maximal effect (EC50) in data set [1] was more than 500 nM. In addition, the IC50 against Aurora kinase A is not above 4 nM; on Aurora kinase B, not above 13 nM.

Turning to `Cc1cn2c(-c3cn[nH]c3)cnc2c(Nc2cc(CN3CCN(CCO)CC3)ns2)n1`, the EC50 in data set [1] is more than 1000 nM. In addition, the results for the IC50 against Aurora kinase A and on Aurora kinase B were not above 4 nM and not above 13 nM, respectively.

In the case of `CCN(Cc1cc(Nc2nc(C)cn3c(-c4cn[nH]c4)cnc23)sn1)C(C)(C)CO`, the IC50 in data set [4] was not above 1 nM; in data set [5], 8 nM; against Aurora kinase A it was not above 4 nM; in data set [6] it was 180 nM; in [7] it was 13 nM; against Aurora kinase B, not above 13 nM. The same molecule registered a half-maximal inhibitory concentration (IC50) in [3] not above 1 nM. Besides, the EC50 in data set [1] was determined as 24 nM.

Turning to `Cc1cn2c(-c3cn[nH]c3)cnc2c(Nc2cc(C3(N4C[C@@H](C)O[C@@H](C)C4)CC3)ns2)n1`, in data set [1], the EC50 turned out to be 733 nM. In addition, the AUC(0-t) at 6 h in data set [2] was 0.3 µM·h. Further, the IC50 is 45 nM against Aurora kinase A and 50 nM on Aurora kinase B.

As to `Cc1cn2c(-c3cn[nH]c3)cnc2c(Nc2cc(CN3CCN(C)C(=O)C3)ns2)n1`, the EC50 in data set [1] was more than 1000 nM. Moreover, the IC50 on Aurora kinase A is not above 4 nM; on Aurora kinase B it was not above 13 nM.

Regarding `Cc1cn2c(-c3cn[nH]c3)cnc2c(Nc2cc(CN3CCN(C)CC3)ns2)n1`, the EC50 in [1] worked out at 412 nM. Besides, the results for the concentration for half-maximal inhibition (IC50) against Aurora kinase A and at Aurora kinase B were not above 4 nM and not above 13 nM, respectively.

On to `Cc1cn2c(-c3cn[nH]c3)cnc2c(Nc2cc(CN3C[C@@H](C)O[C@@H](C)C3)ns2)n1`, for which, in data set [1], the half-maximal effective concentration (EC50) is 82 nM. Further, the exposure AUC(0-t) at 6 h in data set [2] turned out to be 7.3 µM·h. Besides, the IC50 is not above 4 nM against Aurora kinase A and not above 13 nM on Aurora kinase B.

In the case of `COCC(c1cc(Nc2nc(C)cn3c(-c4cn[nH]c4)cnc23)sn1)N1CCOCC1` (racemic), in [1], the EC50 came to 83 nM. In addition, the AUC(0-t) at 6 h in [2] was 2.3 µM·h. Besides, the IC50 at Aurora kinase A was not above 4 nM; against Aurora kinase B it was not above 13 nM.

With `CSc1cn2c(-c3cn[nH]c3)cnc2c(Nc2cc(C)ns2)n1`, the EC50 in data set [1] was determined as 600 nM. At Aurora kinase B, this molecule showed an IC50 not above 13 nM.

For `Cc1cn2c(-c3cn[nH]c3)cnc2c(Nc2cc(CN3CCOC[C@@H]3CO)ns2)n1`, in data set [1], the EC50 is more than 1000 nM. For the same molecule, the IC50 at Aurora kinase A is not above 4 nM; at Aurora kinase B it was not above 13 nM.

Take `Cc1cc(Nc2nc(C)cn3c(-c4cn[nH]c4)cnc23)sn1`: the EC50 in data set [1] was found to be 250 nM. Also, the IC50 on Aurora kinase B is not above 13 nM; in data set [3], 568 nM.

For the molecule `Cc1cn2c(-c3cn[nH]c3)cnc2c(Nc2cc(CN3CCCCC3(C)C)ns2)n1`, the EC50 in data set [1] stood at 14 nM. The molecule further came in with an AUC(0-t) at 6 h in [2] of 0.5 µM·h. The IC50 was not above 4 nM at Aurora kinase A, not above 13 nM against Aurora kinase B and 45 nM in [3].
